Reference: PubChem BioAssay (NCI)
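Five concentrations, 48 hours, 96-well plates. TGI: concentration producing complete growth inhibition.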

Columns and labels:
Assay in all cases: NCI anticancer screen, dose series, 48 h
[1] = system: SK-OV-3 ovarian
[2] = system: SNB-75 CNS
[3] = system: OVCAR-4 ovarian
[4] = system: OVCAR-3 ovarian
[5] = system: PC-3 prostate
[6] = system: UACC-257 melanoma
[7] = system: RXF 393 renal
[8] = system: HT29 colon
[9] = system: UACC-62 melanoma
[10] = system: NCI-H460 lung
[11] = system: HOP-62 NSCLC
[12] = system: MOLT-4 leukemia
[13] = system: SF-295 CNS
[14] = system: ACHN renal
[15] = system: KM12 colon
[16] = system: MALME-3M melanoma
[17] = system: A549 NSCLC
[18] = system: NCI-H522 lung

`CCOC(=O)Cn1c(=O)c2nc(SC)sc2n(-c2ccccc2)c1=S` showed a TGI [1] of 60.7 µM, a TGI [2] of 12.5 µM and a TGI [3] of 35.2 µM. The TGI [4] was 97.7 µM, the TGI [5] was 84.4 µM and the TGI [6] was greater than 100 µM. For the same compound, the TGI [7] was 52.2 µM, the TGI [8] was greater than 100 µM and the TGI [9] was 11.5 µM. It also gave a TGI [10] of 99.4 µM, a TGI [11] of 57.1 µM and a TGI [12] greater than 100 µM. For the same compound, the TGI [13] was greater than 100 µM, the TGI [14] was 43.4 µM and the TGI [15] was 94.9 µM. For the same compound, the TGI [16] was 60.2 µM, the TGI [17] was greater than 100 µM and the TGI [18] was greater than 100 µM.

Work on `O=C(SC1=NCCN1)c1cccc2ccccc12` yielded a TGI [1] greater than 100 µM, a TGI [2] of 96.8 µM and a TGI [3] greater than 100 µM. The TGI [4] was greater than 100 µM, the TGI [5] was greater than 100 µM and the TGI [6] was 95.9 µM. The TGI [7] was greater than 100 µM, the TGI [8] was greater than 100 µM and the TGI [9] was greater than 100 µM. It also gave a TGI [10] greater than 100 µM, a TGI [11] greater than 100 µM and a TGI [12] of 43.2 µM. For the same compound, the TGI [13] was greater than 100 µM, the TGI [14] was greater than 100 µM and the TGI [15] was greater than 100 µM. The TGI [16] was greater than 100 µM, the TGI [17] was greater than 100 µM and the TGI [18] was 74.9 µM.

`C=C1CCCC(C)(C)C1CCC1(C)CCC(C(C)C(=O)OC)OO1` (stereo not given) showed a TGI [1] of 9.43 µM, a TGI [2] of 7.56 µM and a TGI [3] of 17.4 µM. It also gave a TGI [4] greater than 25 µM, a TGI [5] of 7.56 µM and a TGI [6] greater than 25 µM. For the same compound, the TGI [7] was 11.7 µM, the TGI [8] was greater than 25 µM and the TGI [9] was greater than 15.5 µM. The TGI [10] was 3.77 µM, the TGI [11] was 4.7 µM and the TGI [12] was greater than 25 µM. The TGI [13] was 10.2 µM, the TGI [14] was 2.75 µM and the TGI [15] was 2.84 µM. It also gave a TGI [16] greater than 25 µM, a TGI [17] of 4.15 µM and a TGI [18] of 12.6 µM.

With `Cn1c(=O)c2c(nc3sc4c(n32)C(=O)c2c(O)ccc(O)c2C4=O)n(C)c1=O` the TGI [1] was greater than 100 µM, the TGI [2] was 16.1 µM and the TGI [3] was 2.92 µM. The TGI [4] was greater than 20.9 µM, the TGI [5] was 26.7 µM and the TGI [6] was 28.5 µM. It also gave a TGI [7] of 5.59 µM, a TGI [8] of 4.34 µM and a TGI [9] of 8.5 µM. It also gave a TGI [10] greater than 59.4 µM, a TGI [11] of 30 µM and a TGI [12] of 5.08 µM. The TGI [13] was greater than 100 µM, the TGI [14] was 8.33 µM and the TGI [15] was 11.6 µM. The TGI [16] was 3.09 µM, the TGI [17] was 59.6 µM and the TGI [18] was 0.369 µM.

`COc1ccc2[nH]cc(C(=O)C(=O)NC34CC5CC(CC(C5)C3)C4)c2c1` gave a TGI [1] greater than 100 µM, a TGI [2] greater than 73 µM and a TGI [3] greater than 100 µM. It also gave a TGI [4] greater than 49.5 µM, a TGI [5] greater than 100 µM and a TGI [6] greater than 100 µM. For the same compound, the TGI [7] was 16.8 µM, the TGI [8] was 5.32 µM and the TGI [9] was greater than 69.4 µM. It also gave a TGI [10] of 91.3 µM, a TGI [11] of 74.7 µM and a TGI [12] of 16.6 µM. The TGI [13] was greater than 54.6 µM, the TGI [14] was greater than 100 µM and the TGI [15] was greater than 100 µM. For the same compound, the TGI [16] was greater than 100 µM, the TGI [17] was greater than 100 µM and the TGI [18] was greater than 100 µM.

Work on `CC(Oc1ccccc1Cl)C(=O)NN1C(=O)CC(=O)NC1=S` (stereo not given) yielded a TGI [1] greater than 100 µM, a TGI [2] greater than 100 µM and a TGI [3] greater than 100 µM. For the same compound, the TGI [4] was greater than 100 µM, the TGI [5] was greater than 100 µM and the TGI [6] was greater than 100 µM. For the same compound, the TGI [7] was greater than 100 µM, the TGI [8] was greater than 100 µM and the TGI [9] was greater than 100 µM. It also gave a TGI [10] greater than 100 µM, a TGI [11] greater than 100 µM and a TGI [12] greater than 100 µM. It also gave a TGI [13] greater than 100 µM, a TGI [14] greater than 100 µM and a TGI [15] greater than 100 µM. The TGI [16] was greater than 100 µM, the TGI [17] was greater than 100 µM and the TGI [18] was greater than 100 µM.

Compound `OC[P+](CO)(CO)C12CC3CC(CC(C3)C1)C2` has a TGI [1] greater than 100 µM, a TGI [2] greater than 100 µM and a TGI [3] greater than 100 µM. The TGI [4] was greater than 100 µM, the TGI [5] was greater than 100 µM and the TGI [6] was greater than 100 µM. It also gave a TGI [7] greater than 100 µM, a TGI [8] greater than 100 µM and a TGI [9] greater than 100 µM. The TGI [10] was greater than 100 µM, the TGI [11] was greater than 100 µM and the TGI [12] was greater than 80.9 µM. For the same compound, the TGI [13] was greater than 100 µM, the TGI [14] was greater than 100 µM and the TGI [15] was greater than 100 µM. It also gave a TGI [16] greater than 100 µM, a TGI [17] greater than 100 µM and a TGI [18] greater than 100 µM.

`CC1(C)C2CC(O)C1CCC2=O` (stereo not given) gave a TGI [1] greater than 100 µM, a TGI [2] greater than 100 µM and a TGI [3] greater than 100 µM. It also gave a TGI [4] greater than 100 µM, a TGI [5] greater than 100 µM and a TGI [6] greater than 100 µM. For the same compound, the TGI [7] was greater than 100 µM, the TGI [8] was greater than 100 µM and the TGI [9] was greater than 100 µM. For the same compound, the TGI [10] was greater than 100 µM, the TGI [11] was greater than 100 µM and the TGI [12] was greater than 100 µM. The TGI [13] was greater than 100 µM, the TGI [14] was greater than 100 µM and the TGI [15] was greater than 100 µM. The TGI [16] was greater than 100 µM, the TGI [17] was greater than 100 µM and the TGI [18] was greater than 100 µM.

For `O=C(CCCN1CCC(Nc2ccccc2)(c2nnnn2C2CCCCC2)CC1)c1ccc(F)cc1`, the TGI [1] was 26.1 µM, the TGI [2] was 21.9 µM and the TGI [3] was 20.5 µM. It also gave a TGI [4] of 24 µM, a TGI [5] of 24.7 µM and a TGI [6] of 6.65 µM. It also gave a TGI [7] of 22.4 µM, a TGI [8] of 14.6 µM and a TGI [9] of 23.9 µM. For the same compound, the TGI [10] was 35 µM, the TGI [11] was 21.3 µM and the TGI [12] was 46.2 µM. The TGI [13] was 41.8 µM, the TGI [14] was 16.7 µM and the TGI [15] was 21.5 µM. For the same compound, the TGI [16] was 27.4 µM, the TGI [17] was 20.4 µM and the TGI [18] was 19.3 µM.

With `N#Cc1cc([N+](=O)[O-])ccc1NC(=O)/C(=N\NC(=O)c1ccncc1)C(c1cnc2ccc([N+](=O)[O-])cc2n1)[N+](=O)[O-]` (stereo not given) the TGI [1] was 20 µM, the TGI [2] was 3.83 µM and the TGI [3] was 5.76 µM. The TGI [4] was 4.29 µM, the TGI [5] was 21.4 µM and the TGI [6] was 3.05 µM. The TGI [7] was 10.8 µM, the TGI [8] was 41.8 µM and the TGI [9] was 2.96 µM. The TGI [10] was 8.17 µM, the TGI [11] was 6.8 µM and the TGI [12] was 22.9 µM. It also gave a TGI [13] of 4 µM, a TGI [14] of 9.14 µM and a TGI [15] of 7.53 µM. It also gave a TGI [16] of 2.61 µM, a TGI [17] of 15.8 µM and a TGI [18] of 3.46 µM.
